Test results taken from patent publication US20250082695A1, “USE OF GLYCEROL FOR INCREASING BUTYRATE PRODUCTION BY BACTERIA IN A CONSORTIUM” (PHARMABIOME AG, priority 2019, published 2025).

Tests used:
Assay type in all cases: cell-based
[1] = system: butyrate producing strains of group A6; experiment: qPCR quantification of absolute abundances of PB002 strains during continuous culture; settings: glycerol supplementation
Excerpt: FIG. 2: Absolute abundances of all strains of the continuously cultured consortium PB002 in a bioreactor before and after the supplementation of glycerol. Abundances were quantified using qPCR and are indicated in copies of the 16S rRNA gene/ml of culture for the strains representing A1, A2, A3, A4, A5, A6, A7, A8, and A9.
To test maintenance of all bacterial strains of exemplary consortia PB002 and PB010 in the culture over time, qPCR quantification of the single strains of each consortium was performed using the primers listed in Table 3.
DNA from pellets of the fermentation effluent was extracted using the FastDNA™ SPIN Kit for Soil (MP Bio). Genomic DNA extracts were 10-fold diluted using DNA-free H2O. qPCRs were performed using Mastermix SYBR® green 2× and LowRox (Kapa Biosystems), primers (10 μM) and DNA-free H2O were used in a ABI 7500 FAST thermal cycler (Applied Biosystems) as recommended by the producer and quantified using standards of amplified whole 16S rRNA gene amplicon sequences of the strains cloned into the pGEMT easy vector (Promega, Madison WI, USA). Amplification of the whole 16S rRNA gene was performed with a combination of whole 16S rRNA gene amplification primers using one forward and one reverse primer from the primers listed in Table 4. qPCR quantification of the single strains is shown in copies of genomic 16S rRNA gene per ml of culture (FIG. 2). […]

[2] = system: bacterial consortium PB010; experiment: Continuous co-culture, relative end metabolite concentrations on day 2 and 8 (glycerol supplemented after day 2), PB010; settings: PB010 (n=3), glycerol supplemented after day 2, day 8 vs day 2
Method: (§1) FIG. 5: Relative end metabolite concentration of the continuously co-cultured bacterial consortia PB002 (n=2) and PB010 (n=3) in bioreactors on day 2 and 8 of co-cultivation. All bioreactors were cultivated for 48 hours in a medium without glycerol.
(§2) The bacterial consortium PB002 and the bacterial consortium PB010 were continuously cultured in bioreactors. Relative end metabolite concentrations were determined on day 2 and 8 of co-cultivation.
(§3) All bioreactors were cultivated for 48 hours in a medium without glycerol.

[3] = system: bacterial consortium PB010; experiment: Continuous co-culture of consortium PB010 in bioreactors with and without glycerol, absolute metabolite concentrations; settings: PB010, medium with 30 mM glycerol vs without, day 8 after inoculation
Excerpt: FIG. 4: Absolute metabolite concentration of the continuously co-cultured bacterial consortium PB010 in a bioreactor at day 8 after inoculation: (1) cultured in a culture medium without glycerol, (2) cultured in a culture medium supplemented with glycerol. Absolute metabolites of the two reactors are represented on the x-axis and the concentrations of acetate, propionate, and butyrate are indicated in mM on the y-axis.
The concentrations of the produced metabolites were quantified by refractive index detection HPLC (Thermo Scientific Accela™, ThermoFisher Scientific; HPLC-RI)). HPLC-RI analysis was performed using a SecurityGuard Cartridges Carbo-H (4×3.0 mm) (Phenomenex, Torrence, USA) as guard-column connected to a Rezex ROA-Organic Acid H+ column (300×7.8 mm) (Phenomenex). Bacteria cultures to be analyzed were centrifuged at 14.000-x g for 10 min at 4° C. Filter-sterilized ([…]) supernatants were analyzed. Injection volume for each sample was […]. […] Peaks were analyzed using AgilentEzChrome Elite software (Version: 3.3.2 SP2, Agilent Technologies, Inc. Pleasanton, USA). […]
(§4) The bioreactor was consecutively operated at pH 6.0 for 24 h in order to allow growth of primary degraders and subsequent consumption of the produced intermediate metabolites. Growth was monitored by base consumption and optical density. Metabolites were monitored using HPLC-RI as described above. […]

[4] = system: bacterial consortium PB002; experiment: Continuous co-culture of consortium PB002 in a bioreactor, daily metabolite concentrations before and after glycerol supplementation; settings: PB002, addition of 30 mM glycerol at day 38 of continuous culture
Excerpt: FIG. 1: Daily metabolite concentration of the continuously co-cultured bacterial consortium PB002 in a bioreactor before and after the supplementation of glycerol. Day of sampling from day 30 to day 55 after inoculation are represented on the x-axis and the concentrations of acetate, propionate, butyrate, formate, lactate, and succinate indicated in mM on the y-axis.
The concentrations of the produced metabolites were quantified by refractive index detection HPLC (Thermo Scientific Accela™, ThermoFisher Scientific; HPLC-RI)). […] Bacteria cultures to be analyzed were centrifuged at 14.000-x g for 10 min at 4° C. Filter-sterilized ([…]) supernatants were analyzed. […] Peaks were analyzed using AgilentEzChrome Elite software (Version: 3.3.2 SP2, Agilent Technologies, Inc. Pleasanton, USA). […]
as §4
The consortium PB002 was continuously cultured in a bioreactor during 55 days. Metabolite concentrations were measured daily before and after glycerol supplementation (addition of 30 mM glycerol) at day 38.

[5] = system: bacterial consortium PB002; experiment: Continuous co-culture, relative end metabolite concentrations on day 2 and 8 (glycerol supplemented after day 2), PB002; settings: PB002 (n=2), glycerol supplemented after day 2, day 8 vs day 2
Method: as §1, §2, §3

SMILES: OCC(O)CO [glycerol]
- abundance of butyrate producing strains of group A6 (16S rRNA gene copies/ml) [1]: positively affects abundance
- butyrate production (relative end metabolite concentration) [2]: increase in butyrate production
- accumulation of succinate, lactate or formate [3]: no accumulation
- butyrate production of the consortium [3]: stimulates butyrate production
- accumulation of the intermediate metabolites formate, lactate, succinate [4]: no accumulation
- butyrate production of the consortium [4]: enhanced butyrate production immediately
- butyrate production (relative end metabolite concentration) [5]: increase in butyrate production
